Read-outs that look alike come from different tables or passages of the source.
Assays:
[1] = system: S. epidermidis; experiment: Anti-Microbial Test 2: in vitro growth inhibition by chelators (optical density at 600 nm); format: cell-based, Staphylococcus epidermidis (axillary isolate); conditions: chelator 5×10^−5 mol.dm^−3 in semi-synthetic medium pH 6.7, 16 hours at 37° C., relative to control medium
Description: The chelators indicated in Table 4 were subjected to the following in vitro test for anti-microbial activity against Staphylococcus Epidermididis.
An axillary isolate of S. epidermidis was grown overnight in 100 ml of tryptone soy broth (TSB, ex Oxoid Ltd.). 10 ml of this culture was taken and subjected to centrifugation. The separated cells were re-suspended in 10 ml of phosphate-buffered saline and the centrifugation procedure repeated. The washed cells were re-suspended in 10 ml of phosphate-buffered saline to give the inoculum.
100 ml of semi-synthetic medium (SSM) [containing (NH4)2SO4 (0.066 g), MgSO4.7H2O (0.012 g), KCl (0.1 g), KH2PO4 (0.27 g), Na2HPO4 (1.43 g), Thiamin (0.1 mg), Biotin (0.05 mg), Peptone P (0.05 g), Glucose (2.0 mmole)] was sterilised by autoclaving at 121° C. for 20 minutes. After sterilisation, the pH was adjusted to 6.7 with HCl to give the control medium. The chelator-containing test media were prepared in a similar manner, the chelator being introduced at a concentration of 5×10^−5 mol.dm^−3, before the pH adjustment with HCl.
100 μl of the inoculum was introduced into each of the test media and the control medium. The cultures were incubated at 37° C. (with agitation at 200 rpm) for 16 hours. After this time, the optical density of the cultures were measured at 600 nm to determine the extent of bacterial growth. By comparing the optical density of the culture in the presence of chelating agent to that of the control, the percentage inhibition of growth was established for each of the chelators. (Optical density measurements were made on 1 in 4 dilutions of the cultures with 0.9% (w/v) saline, using 1 cm path length cuvettes, on a Pharmacia Biotech Ultrospec 200 Spectrophotometer.)

[2] = cited from earlier work; for Log10K (iron (III) binding constant): fully deprotonated chelator, independent of pH
[3] = system: Staphylococcus epidermidis; conditions: cited from earlier work
[4] = literature values, 80% or greater reduction in growth over 16 to 24 hours at 37° C.

O=C(O)CN(CCOCCOCCN(CC(=O)O)CC(=O)O)CC(=O)O [EGTA, Ethyleneglycol-O,O′-bis-(2-aminoethyl)-N,N,N′,N′-tetraacetic acid, reference compound]
Inhibition of growth (%) [1]: 21%
Log10K (iron (III) binding constant) [2]: 20.5

O=C(O)CN(CC(=O)O)CC(=O)O [NTA, Nitrilotriacetic acid, reference compound]
Inhibition of growth (%) [1]: 6%
Log10K (iron (III) binding constant) [2]: 15.9

O=C(O)C(NCCNC(C(=O)O)c1ccccc1O)c1ccccc1O (centres unmarked) [EDDHA, N,N′-ethylenebis[2-(2-hydroxyphenyl)glycine]]
Inhibition of growth (%) [1]: >70%
Log10K (iron (III) binding constant) [2]: 35.5

O=C(O)CC(NCCNC(CC(=O)O)C(=O)O)C(=O)O (mixture of isomers) [EDDS, N,N-ethylenediaminedisuccinic acid, reference compound]
Inhibition of growth (%) [1]: 18%
iron (III) binding constant ([2]; Critical Stability Constants, Martell and Smith, 1974): 10^22
Log10K (iron (III) binding constant) [2]: 22.0

O=C(O)CN(CCN(CC(=O)O)CC(=O)O)CCN(CC(=O)O)CC(=O)O [DTPA, diethylenetriaminepentaacetic acid]
Inhibition of growth (%) [1]: >70%
Log10K (iron (III) binding constant) [2]: 28.6

O=C(O)CN(CC(=O)O)[C@@H]1CCCC[C@H]1N(CC(=O)O)CC(=O)O (relative stereo) [CDTA, trans-1,2-diaminocyclohexane-N, N,N′,N′-tetraacetic acid]
Inhibition of growth (%) [1]: >70%
Log10K (iron (III) binding constant) [2]: 28.05

CC(C)=CCCC(C)=CCCC(C)=CCO [farnesol, 3,7,11-trimethyldodeca-2,6,10-trienol]
MIC [3, 4]: ca. 25 μg.ml^−1

CCO [ethanol]
MIC ([3]; stated by contrast, no source given): greater than 1 mg.ml^−1

O=C(O)CN(CCN(CCN(CC(=O)O)CC(=O)O)CC(=O)O)CCN(CC(=O)O)CC(=O)O [TTHA, triethylenetetraaminehexaacetic acid]
Inhibition of growth (%) [1]: >70%
Log10K (iron (III) binding constant) [2]: 26.8

O=C(O)CN(CCN(CC(=O)O)CC(=O)O)CC(=O)O [EDTA, ethylenediaminetetraacetic acid]
Inhibition of growth (%) [1]: >70%
Log10K (iron (III) binding constant) [2]: 25.1

Oc1cc(Cl)ccc1Oc1ccc(Cl)cc1Cl [triclosan, 2′,4,4′-trichloro,2-hydroxy-diphenyl ether]
MIC [3, 4]: 0.01 to 10 µg/mL

Source: patent publication US6793914B2, “Anti-microbial compositions” (Unilever Home & Personal Care USA, division of Conopco, Inc., priority 2000, dated 2004)
